Test results reported in patent US10196364B2, “Pyrimidine carboxamides as sodium channel blockers” (Purdue Pharma L.P., priority 2013, dated 2019).

Assays:
Type in all cases: cell-based
human Nav1.7 [1] = biological target: T1, human Nav1.7 (Homo sapiens, UniProt Q15858); experiment: FLIPR membrane potential dye assay (alternative fluorescence assay) in Nav1.7 expressing cells; details: Table 7
human Nav1.7 [2] = biological target: T1, human Nav1.7; experiment: FLIPR sodium dye assay (CoroNa Green AM Na+ dye, primary fluorescence assay) in recombinant Nav1.7/HEK293 cells; details: Table 6; CoroNa Green AM Na+ dye primary fluorescence assay; read-out: Nav1.7 Activity (μM) FLIPR assay IC50
hNav1.7 = hNav1.7 (Homo sapiens, UniProt Q15858); experiment: Electrophysiology (EP) whole-cell patch clamp assay in hNav1.7 expressing HEK-293 cells; details: Table 6; for Ki: affinity for inactivated channels, read-out: Nav1.7 Activity (μM) EP assay Ki; for Kd: resting block dissociation constant, read-out: Nav1.7 Activity (μM) EP assay Kr
Experimental: The hNav1.7 expressing HEK-293 cells were plated on 35 mm culture dishes pre-coated with poly-D-lysine in standard DMEM culture media (Mediatech, Inc., Herndon, Va.) and incubated in a 5% CO2 incubator at 37° C. Cultured cells were used approximately 12-48 h after plating.
On the day of experimentation, the 35 mm dish was placed on the stage of an inverted microscope equipped with a perfusion system that continuously perfuses the culture dish with fresh recording media. A gravity driven superfusion system was used to apply test solutions directly to the cell under evaluation. This system consists of an array of glass pipette glass connected to a motorized horizontal translator. The outlet of the shooter was positioned approximately 100 μm from the cell of interest.
Whole cell currents were recorded using the whole-cell patch clamp configuration using an Axopatch 200B amplifier (Axon Instruments, Foster City Calif.), 1322A A/D converter (Axon Instruments) and pClamp software (v. 8; Axon Instruments) and stored on a personal computer. Gigaseals were formed and the whole-cell configuration was established in voltage clamp mode, and membrane currents generated by hNav1.7 were recorded in gap-free mode. Borosilicate glass pipettes have resistance values between 1.5 and 2.0 MΩ when filled with pipette solution and series resistance (<5 MΩ) was compensated 75-80%. Signals were sampled at 50 kHz and low pass filtered at 3 kHz.
After establishing the whole-cell configuration in voltage clamp mode, two voltage protocols were run to establish: 1) the holding potential; and 2) the test potential for each cell.
To determine a membrane potential at which the majority of channels are in the resting state, a standard steady-state inactivation (SSIN) protocol was run using 100 ms prepulses×10 mV depolarizing steps. The holding potential for testing resting block (Vh1) was 20 mV more hyperpolarized than the first potential where inactivation is observed with the inactivation protocol.
From this holding potential a standard I-V protocol was run to determine the potential at which the maximal current (Imax) was elicited. This potential was the test potential (Vt).
The compound testing protocol was a series of 10 ms depolarizations from the Vh1 (determined from the SSIN) to the Vt (determined from the I-V protocol) repeated every 10-15 seconds. […] Washout of the compound was attempted by superfusing with control solution once steady-state block was observed. The fractional response was calculated as follows: FR=I(after drug)/I(control), where I is the peak current amplitude and was used for estimating resting block dissociation constant, Kr: Kr=[drug]*{FR/(1−FR)}, where [drug] is the concentration of a drug.
To assess the block of inactivated channels the holding potential was depolarized such that 20-50% of the current amplitude was reduced when pulsed to the same Vt as above. The magnitude of this depolarization depends upon the initial current amplitude and the rate of current loss due to slow inactivation. This was the second holding potential (Vh2). The current reduction was recorded to determine the fraction of available channels at this potential (h). h=I@Vh2/Imax.
At this membrane voltage a proportion of channels are in the inactivated state, and thus inhibition by a blocker includes interaction with both resting and inactivated channels.
To determine the potency of the test compound on inactivated channels, a series of currents were elicited by 10 ms voltage steps from Vh2 to Vt every 10-15 seconds. After establishing a stable baseline, the low concentration of the compound was applied. Multiple cumulative concentrations may have to be applied to identify a concentration that will block between 40-60% of the current. Washout was attempted to re-establish baseline. Fractional responses were measured with respect to a projected baseline to determine Kapp. Kapp=[drug]*{FR/(1−FR)}, where [drug] is the concentration of a drug. […]

T1 sequence (Q15858 1-1977 isoform Q15858-3): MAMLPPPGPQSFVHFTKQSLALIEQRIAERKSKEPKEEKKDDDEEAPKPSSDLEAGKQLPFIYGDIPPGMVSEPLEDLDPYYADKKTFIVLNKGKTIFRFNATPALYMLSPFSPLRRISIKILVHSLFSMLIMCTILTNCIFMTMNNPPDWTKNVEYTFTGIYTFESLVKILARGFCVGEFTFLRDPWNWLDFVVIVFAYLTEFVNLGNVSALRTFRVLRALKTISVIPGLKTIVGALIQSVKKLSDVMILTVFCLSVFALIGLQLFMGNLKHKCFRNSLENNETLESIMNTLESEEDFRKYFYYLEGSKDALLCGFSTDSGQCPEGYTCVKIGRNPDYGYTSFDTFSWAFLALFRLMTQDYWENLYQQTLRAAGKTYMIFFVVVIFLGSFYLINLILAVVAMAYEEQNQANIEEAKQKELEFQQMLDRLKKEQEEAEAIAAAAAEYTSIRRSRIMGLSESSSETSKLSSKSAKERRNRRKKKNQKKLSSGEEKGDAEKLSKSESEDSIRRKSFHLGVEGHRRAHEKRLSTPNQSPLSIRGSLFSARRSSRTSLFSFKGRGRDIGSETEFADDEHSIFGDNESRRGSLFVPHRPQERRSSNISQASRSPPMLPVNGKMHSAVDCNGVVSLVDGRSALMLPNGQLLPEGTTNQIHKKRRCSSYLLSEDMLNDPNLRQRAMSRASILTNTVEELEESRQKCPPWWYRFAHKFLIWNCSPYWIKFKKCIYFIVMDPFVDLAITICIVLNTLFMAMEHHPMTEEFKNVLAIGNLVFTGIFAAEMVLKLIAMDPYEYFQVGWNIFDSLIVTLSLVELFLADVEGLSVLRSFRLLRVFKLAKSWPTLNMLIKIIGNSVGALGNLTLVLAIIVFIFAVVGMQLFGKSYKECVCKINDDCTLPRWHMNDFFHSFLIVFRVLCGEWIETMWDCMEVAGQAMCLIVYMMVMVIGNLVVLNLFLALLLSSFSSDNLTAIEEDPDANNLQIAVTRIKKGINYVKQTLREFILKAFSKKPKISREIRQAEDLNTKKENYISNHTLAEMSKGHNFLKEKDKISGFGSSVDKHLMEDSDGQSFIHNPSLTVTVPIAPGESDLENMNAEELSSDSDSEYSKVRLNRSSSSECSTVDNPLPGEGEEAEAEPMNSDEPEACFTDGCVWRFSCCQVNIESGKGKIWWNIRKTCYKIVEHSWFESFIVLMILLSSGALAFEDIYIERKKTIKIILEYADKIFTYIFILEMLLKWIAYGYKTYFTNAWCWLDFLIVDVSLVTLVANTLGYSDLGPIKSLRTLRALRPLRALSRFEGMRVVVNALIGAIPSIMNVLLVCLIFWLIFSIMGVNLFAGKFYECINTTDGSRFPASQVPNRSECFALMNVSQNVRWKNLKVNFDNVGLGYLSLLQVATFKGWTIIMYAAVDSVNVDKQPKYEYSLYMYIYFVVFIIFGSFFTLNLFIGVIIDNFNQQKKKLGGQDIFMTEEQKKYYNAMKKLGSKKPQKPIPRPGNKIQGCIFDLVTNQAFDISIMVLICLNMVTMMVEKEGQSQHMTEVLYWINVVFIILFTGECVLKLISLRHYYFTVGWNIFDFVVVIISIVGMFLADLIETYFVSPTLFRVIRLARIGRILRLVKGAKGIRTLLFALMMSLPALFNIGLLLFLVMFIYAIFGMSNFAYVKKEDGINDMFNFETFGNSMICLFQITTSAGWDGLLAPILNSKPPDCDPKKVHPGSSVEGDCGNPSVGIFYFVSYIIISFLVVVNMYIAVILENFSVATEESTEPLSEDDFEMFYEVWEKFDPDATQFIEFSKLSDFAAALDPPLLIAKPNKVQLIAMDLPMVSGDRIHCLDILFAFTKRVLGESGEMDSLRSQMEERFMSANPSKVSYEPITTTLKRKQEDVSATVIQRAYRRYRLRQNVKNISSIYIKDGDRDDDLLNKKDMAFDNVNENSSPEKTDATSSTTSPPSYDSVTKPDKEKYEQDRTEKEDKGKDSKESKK
hNav1.7, sequence (Q15858 1-1977 isoform Q15858-3): as above

| Compound | IC50 (human Nav1.7 [1]) | IC50 (human Nav1.7 [2]) | Ki (hNav1.7) | Kd (hNav1.7) |
| --- | --- | --- | --- | --- |
| C[C@H](Nc1cc(C(N)=O)nc(-c2ccc(N3Cc4cc(Cl)ccc4OCC3=O)cc2)n1)C(N)=O [Cpd No. 222, (S)-6-((1-amino-1-oxopropan-2-yl)amino)-2-(4-(7-chloro-3-oxo-2,3-dihydrobenzo-[f][1,4]oxazepin-4(5H)-yl)phenyl)pyrimidine-4-carboxamide] | > 20 µM | – | – | – |
| NC(=O)c1cc(N[C@H]2CCNC2=O)nc(-c2ccc(Oc3ccc(C(F)F)cn3)cc2)n1 [Cpd No. 220, (S)-2-(4-((5-(difluoromethyl)-pyridin-2-yl)oxy)phenyl)-6-((2-oxopyrrolidin-3-yl)amino)-pyrimidine-4-carboxamide] | 2.76 µM | – | – | – |
| NC(=O)c1cc(N[C@H]2CCNC2=O)nc(-c2ccc(Cc3ccc(C(F)(F)F)cn3)cc2)n1 [Cpd No. 190, (S)-6-((2-oxopyrrolidin-3-yl)amino)-2-(4-((5-(trifluoro-methyl)pyridin-2-yl)methyl)-phenyl)pyrimidine-4-carboxamide] | – | 1.61 µM | 0.29 µM | – |
| NC(=O)c1cc(N[C@H]2CCNC2=O)nc(-c2ccc(Oc3ccc(C4CC4)cn3)cc2)n1 [compound 142, (S)-2-(4-((5-cyclopropylpyridin-2-yl)oxy)phenyl)-6-((2-oxopyrrolidin-3-yl)amino)pyrimidine-4-carboxamide] | – | 0.064 µM | 0.3 µM | 26.8 µM |
| CCN(CC)Cc1cc(C(F)(F)F)ccc1Oc1ccc(-c2nc(O[C@H]3CCNC3=O)cc(C(N)=O)n2)cc1 [Cpd No. 216, (S)-2-(4-(2-((diethylamino)-methyl)-4-(trifluoromethyl)-phenoxy)phenyl)-6-((2-oxopyrrolidin-3-yl)oxy)-pyrimidine-4-carboxamide] | 1.21 µM | – | – | – |
| Cn1cc(-c2ccc(-c3nc(N[C@H]4CCNC4=O)cc(C(N)=O)n3)cc2)c2ccc(C(F)(F)F)cc21 [Cpd No. 218, (S)-2-(4-(1-methyl-6-(trifluoromethyl)-1H-indol-3-yl)phenyl)-6-((2-oxopyrrolidin-3-yl)amino)pyrimidine-4-carboxamide] | 4.03 µM | – | – | – |
| NC(=O)c1cc(N[C@H]2CCNC2=O)nc(N2C3CCC2CC(Oc2ccc(C(F)(F)F)cn2)C3)n1 (stereo partly drawn) [compound 140, 6-(((S)-2-oxopyrrolidin-3-yl)amino)-2-(3-((5-(trifluoromethyl)pyridin-2-yl)oxy)-8-azabicyclo[3.2.1]octan-8-yl)pyrimidine-4-carboxamide] | – | 0.38 µM | 2.55 µM | 46.2 µM |
| C[C@H](Nc1cc(C(N)=O)nc(N2CC[C@H](Oc3ccc(C(F)(F)F)cc3)C2)n1)C(N)=O [Cpd No. 225, 6-(((S)-1-amino-1-oxopropan-2-yl)amino)-2-((S)-3-(4-(trifluoro-methyl)phenoxy)pyrrolidin-1-yl)pyrimidine-4-carboxamide] | 10 to 20 µM | – | – | – |
| C[C@H](Nc1cc(C(N)=O)nc(N2CC[C@@H](Oc3ccc(C(F)(F)F)cc3)C2)n1)C(N)=O [Cpd No. 226, 6-(((S)-1-amino-1-oxopropan-2-yl)amino)-2-((R)-3-(4-(trifluoromethyl)-phenoxy)pyrrolidin-1-yl)pyrimidine-4-carboxamide] | 3.23 µM | – | – | – |
| NC(=O)c1cc(N[C@H]2CCNC2=O)nc(N2[C@@H]3CC[C@H]2C[C@H](Oc2ccc(C(F)(F)F)cn2)C3)n1 [Cpd No. 183, 6-(((S)-2-oxopyrrolidin-3-yl)amino)-2-((1R,3R,5S)-3-((5-(trifluoromethyl)pyridin-2-yl)oxy)-8-azabicyclo[3.2.1]octan-8-yl)pyrimidine-4-carboxamide] | – | 1.27 µM | 0.49 µM | – |
| Cn1cc(COc2ccc(-c3nc(N[C@H]4CCNC4=O)cc(C(N)=O)n3)cc2)cn1 [Cpd No. 233, (S)-2-(4-((1-methyl-1H-pyrazol-4-yl)methoxy)phenyl)-6-((2-oxopyrrolidin-3-yl)amino)-pyrimidine-4-carboxamide] | 10 to 20 µM | – | – | – |
| NC(=O)c1cc(N[C@H]2CCNC2=O)nc(-c2ccc(Oc3cc(Cl)ccc3F)cc2)n1 [compound 117, (S)-2-(4-(5-chloro-2-fluorophenoxy)phenyl)-6-((2-oxopyrrolidin-3-yl)amino)pyrimidine-4-carboxamide] | – | 0.2 µM | 0.027 µM | 0.83 µM |
| NC(=O)c1cc(O[C@H]2CCNC2=O)nc(-c2ccc(Oc3ccc(C(F)(F)F)cc3)cc2CN2CCCCC2)n1 [Cpd No. 231, (S)-6-((2-oxopyrrolidin-3-yl)oxy)-2-(2-(piperidin-1-ylmethyl)-4-(4-(trifluoromethyl)-phenoxy)phenyl)pyrimidine-4-carboxamide] | > 20 µM | – | – | – |
| NC(=O)c1cc(N[C@H]2CCNC2=O)nc(-c2ccc(Oc3cccc(F)n3)cc2)n1 [compound 134, (S)-2-(4-((6-fluoropyridin-2-yl)oxy)phenyl)-6-((2-oxopyrrolidin-3-yl)amino) pyrimidine-4-carboxamide] | – | 2.42 µM | 0.82 µM | 22.1 µM |
| CC(=O)c1ccc(Oc2ccc(-c3nc(N[C@H]4CCNC4=O)cc(C(N)=O)n3)cc2)nc1 [Cpd No. 217, (S)-2-(4-((5-acetylpyridin-2-yl)oxy)phenyl)-6-((2-oxo-pyrrolidin-3-yl)amino)-pyrimidine-4-carboxamide] | > 20 µM | – | – | – |
| NC(=O)c1cc(O[C@H]2CCNC2=O)nc(-c2ccc(Oc3ccc(C(F)(F)F)cc3)cc2CN2CCOCC2)n1 [Cpd No. 232, (S)-2-(2-(morpholinomethyl)-4-(4-(trifluoromethyl)-phenoxy)phenyl)-6-((2-oxopyrrolidin-3-yl)oxy)-pyrimidine-4-carboxamide] | 10 to 20 µM | – | – | – |
| Cn1nccc1-c1cc(Oc2ccc(C(F)(F)F)cc2)ccc1-c1nc(N[C@H]2CCNC2=O)cc(C(N)=O)n1 [Cpd No. 219, (S)-2-(2-(1-methyl-1H-pyrazol-5-yl)-4-(4-(trifluoromethyl)-phenoxy)phenyl)-6-((2-oxopyrrolidin-3-yl)amino)-pyrimidine-4-carboxamide] | 0.94 µM | – | – | – |
| NC(=O)c1cc(N[C@H]2CCNC2=O)nc(-c2ccc(Oc3ccc(Cl)cn3)cc2)n1 [compound 133, (S)-2-(4-((5-chloropyridin-2-yl)oxy)phenyl)-6-((2-oxopyrrolidin-3-yl)amino)pyrimidine-4-carboxamide] | – | 0.39 µM | 0.57 µM | 7.17 µM |
| C[C@H](Oc1cc(C(N)=O)nc(-c2ccc(Oc3ccc(C(F)(F)F)cn3)cc2)n1)C(N)=O [compound 146, (S)-6-((1-amino-1-oxopropan-2-yl)oxy)-2-(4-((5-(trifluoromethyl)pyridin-2-yl)oxy)phenyl)pyrimidine-4-carboxamide] | – | 0.52 µM | 1.25 µM | 18.3 µM |
| C[C@H](Nc1cc(C(N)=O)nc(-c2ccc(Oc3ccc(C#N)cc3)cc2C(F)(F)F)n1)C(N)=O [compound 128, (S)-6-((1-amino-1-oxopropan-2-yl)amino)-2-(4-(4-cyanophenoxy)-2-(trifluoromethyl)phenyl)pyrimidine-4-carboxamide] | – | > 20 µM | – | – |
| NC(=O)c1cc(N[C@H]2CCNC2=O)nc(N2CC3CC2CN3Cc2ccc(F)cc2)n1 (stereo partly drawn) [compound 139, 2-(5-(4-fluorobenzyl)-2,5-diazabicyclo[2.2.1]heptan-2-yl)-6-(((S)-2-oxopyrrolidin-3-yl)amino)pyrimidine-4-carboxamide] | – | > 20 µM | – | – |
| C[C@H](Oc1cc(C(N)=O)nc(-c2ccc(Oc3ccc(C(F)(F)F)cn3)cc2)n1)C(=O)NCCN1CCCC1 [compound 147, (S)-6-((1-oxo-1-((2-(pyrrolidin-1-yl)ethyl)amino)propan-2-yl)oxy)-2-(4-((5-(trifluoromethyl)pyridin-2-yl)oxy)phenyl)pyrimidine-4-carboxamide] | – | 0.54 µM | – | – |
